Laboratory results from paper PMC10491595, “Activation of the integrated stress response by inhibitors of its kinases” (Nature Communications, 2023).

Columns and labels:
[1] = biological target: T1, GCN2 (Homo sapiens, UniProt Q9P2K8); experiment: in vitro kinase assay; assay type: biochemical
T1 construct: gene EIF2AK4; GST-GCN2 fragment (192-1024)
T1 sequence (Q9P2K8 192-1024): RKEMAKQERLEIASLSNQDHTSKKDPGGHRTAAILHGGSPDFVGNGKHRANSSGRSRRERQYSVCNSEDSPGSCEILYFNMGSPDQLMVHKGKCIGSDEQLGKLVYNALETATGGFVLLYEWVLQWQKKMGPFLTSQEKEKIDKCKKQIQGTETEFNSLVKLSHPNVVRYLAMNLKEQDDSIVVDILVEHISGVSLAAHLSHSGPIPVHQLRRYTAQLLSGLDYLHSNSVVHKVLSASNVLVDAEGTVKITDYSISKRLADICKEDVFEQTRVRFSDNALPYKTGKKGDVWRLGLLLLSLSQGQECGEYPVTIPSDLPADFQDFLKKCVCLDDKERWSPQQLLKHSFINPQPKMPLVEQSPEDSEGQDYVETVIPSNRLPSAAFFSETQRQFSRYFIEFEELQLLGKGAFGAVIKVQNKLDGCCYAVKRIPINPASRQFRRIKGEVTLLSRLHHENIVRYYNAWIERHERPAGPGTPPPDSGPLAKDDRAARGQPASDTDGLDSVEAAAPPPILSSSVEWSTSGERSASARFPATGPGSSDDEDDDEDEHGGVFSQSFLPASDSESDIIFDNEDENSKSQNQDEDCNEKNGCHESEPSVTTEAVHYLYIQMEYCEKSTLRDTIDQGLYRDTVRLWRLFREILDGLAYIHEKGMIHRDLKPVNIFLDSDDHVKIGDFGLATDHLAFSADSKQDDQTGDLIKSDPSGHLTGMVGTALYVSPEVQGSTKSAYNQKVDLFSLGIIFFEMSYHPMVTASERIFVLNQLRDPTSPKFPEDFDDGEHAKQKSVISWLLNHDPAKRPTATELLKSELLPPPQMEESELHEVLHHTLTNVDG

[2] = biological target: T1, GCN2; experiment: in vitro kinase assay (Gaussian activation then inhibition); thermal shift of kinase domain; competition with A92; assay type: biochemical
[3] = biological target: T2, PERK (Homo sapiens, UniProt Q9NZJ5); experiment: PERK activation (mobility shift) immunoblot in tunicamycin-treated HeLa cells; assay type: cell-based
T2 construct: gene EIF2AK3
T2 sequence (Q9NZJ5 30-1116): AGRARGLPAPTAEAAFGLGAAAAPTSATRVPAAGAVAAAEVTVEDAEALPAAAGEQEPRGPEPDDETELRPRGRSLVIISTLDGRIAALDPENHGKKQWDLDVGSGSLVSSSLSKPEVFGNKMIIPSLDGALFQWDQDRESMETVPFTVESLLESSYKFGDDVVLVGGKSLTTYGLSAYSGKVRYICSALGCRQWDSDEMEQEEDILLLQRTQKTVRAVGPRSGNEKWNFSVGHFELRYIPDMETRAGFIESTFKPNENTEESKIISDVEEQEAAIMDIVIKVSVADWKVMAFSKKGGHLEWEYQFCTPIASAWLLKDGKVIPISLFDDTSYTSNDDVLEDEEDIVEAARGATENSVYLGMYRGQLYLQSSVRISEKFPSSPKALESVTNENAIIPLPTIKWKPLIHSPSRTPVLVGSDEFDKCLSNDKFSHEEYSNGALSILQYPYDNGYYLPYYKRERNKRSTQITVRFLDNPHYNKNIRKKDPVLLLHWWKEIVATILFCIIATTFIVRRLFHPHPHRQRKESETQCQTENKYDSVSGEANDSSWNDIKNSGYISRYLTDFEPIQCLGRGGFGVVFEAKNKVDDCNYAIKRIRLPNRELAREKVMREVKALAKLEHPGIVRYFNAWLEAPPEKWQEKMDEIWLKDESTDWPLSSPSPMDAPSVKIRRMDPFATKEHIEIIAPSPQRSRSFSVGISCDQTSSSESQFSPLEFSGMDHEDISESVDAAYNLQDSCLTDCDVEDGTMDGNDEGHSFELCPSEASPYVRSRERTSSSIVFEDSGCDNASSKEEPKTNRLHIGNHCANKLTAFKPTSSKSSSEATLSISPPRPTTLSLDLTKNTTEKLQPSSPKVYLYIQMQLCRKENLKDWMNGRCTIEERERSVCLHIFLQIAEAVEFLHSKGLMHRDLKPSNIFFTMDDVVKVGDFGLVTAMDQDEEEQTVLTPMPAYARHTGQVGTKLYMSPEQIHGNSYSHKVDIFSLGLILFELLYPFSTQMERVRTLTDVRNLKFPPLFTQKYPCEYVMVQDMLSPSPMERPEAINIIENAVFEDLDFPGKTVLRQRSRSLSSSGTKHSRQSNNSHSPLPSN

[4] = biological target: the molecule itself; experiment: SEC-MALS; GST-GCN2 fragment at ~1.7 mg/ml, incubated 20 min at 30 °C with DMSO or 50 µM GSK'157; Superdex 200 Increase 10/300 GL, 10 mM HEPES, 150 mM NaCl, 1 mM TCEP with DMSO or 50 µM GSK'157; same result in both conditions

## Nc1ncnc2c1ncn2[C@@H]1O[C@H](CO[P@](=O)(O)O[P@](=O)(O)NP(=O)(O)O)[C@@H](O)[C@H]1O [AMP-PNP]
[1]
  in vitro kinase assay: ~ 250 μM

## Cc1cccc(CC(=O)N2CCc3c2ccc(-c2cn(C)c4ncnc(N)c24)c3F)n1 [GSK'157, GSK2656157]
[2]
  in vitro kinase assay (Gaussian activation then inhibition); thermal shift of ki: ~ 5 μM
[3]
  PERK activation (mobility shift) immunoblot in tunicamycin-treated HeLa cells: 0.02 to 10 µM

B1: in-house recombinant GST-GCN2 fragment (192-1024) (domain or fragment, UniProt Q9P2K8 192-1024, looked up)
chain: RKEMAKQERLEIASLSNQDHTSKKDPGGHRTAAILHGGSPDFVGNGKHRANSSGRSRRERQYSVCNSEDSPGSCEILYFNMGSPDQLMVHKGKCIGSDEQLGKLVYNALETATGGFVLLYEWVLQWQKKMGPFLTSQEKEKIDKCKKQIQGTETEFNSLVKLSHPNVVRYLAMNLKEQDDSIVVDILVEHISGVSLAAHLSHSGPIPVHQLRRYTAQLLSGLDYLHSNSVVHKVLSASNVLVDAEGTVKITDYSISKRLADICKEDVFEQTRVRFSDNALPYKTGKKGDVWRLGLLLLSLSQGQECGEYPVTIPSDLPADFQDFLKKCVCLDDKERWSPQQLLKHSFINPQPKMPLVEQSPEDSEGQDYVETVIPSNRLPSAAFFSETQRQFSRYFIEFEELQLLGKGAFGAVIKVQNKLDGCCYAVKRIPINPASRQFRRIKGEVTLLSRLHHENIVRYYNAWIERHERPAGPGTPPPDSGPLAKDDRAARGQPASDTDGLDSVEAAAPPPILSSSVEWSTSGERSASARFPATGPGSSDDEDDDEDEHGGVFSQSFLPASDSESDIIFDNEDENSKSQNQDEDCNEKNGCHESEPSVTTEAVHYLYIQMEYCEKSTLRDTIDQGLYRDTVRLWRLFREILDGLAYIHEKGMIHRDLKPVNIFLDSDDHVKIGDFGLATDHLAFSADSKQDDQTGDLIKSDPSGHLTGMVGTALYVSPEVQGSTKSAYNQKVDLFSLGIIFFEMSYHPMVTASERIFVLNQLRDPTSPKFPEDFDDGEHAKQKSVISWLLNHDPAKRPTATELLKSELLPPPQMEESELHEVLHHTLTNVDG
notes: GCN2 (eIF2alpha kinase 4), residues 192-1024; MW of the GST fusion ~135 kDa as printed; eluted with glutathione, no cleavage of GST is described; GST itself is known to dimerise, so the dimer may owe to the tag (my surmise); also called recombinant GCN2; source: Sf9 (baculovirus), purified (Glutathione Sepharose 4B, Superdex 200); not shown: GST, N-terminal, kept
[4]
  stoichiometry N: 2
